# Data: the supplement of paper PMC5908809
# What was measured:
# Assay in all cases: relative IC50 (inflection point of fitted viability curve, relative to fitted max inhibition); higher = less sensitive
# Conditions in all cases: 72 h
# DERL-7 (IL-2 2.5 ng/mL) = tested on: DERL-7 (IL-2 2.5 ng/mL)
# Method: (§1)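 Drug sensitivity and resistance testing: 5 concentrations over a 10,000-fold range, 72 h at 37 °C, viability by CellTiter-Glo normalised to DMSO and benzethonium chloride controls. IC50 is the inflection point of a logistic fit (min fixed at 0, max fitted), so it is relative to the fitted maximal inhibition. Kept only where fitted max inhibition is at least 50%.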
# KAI3 (IL-2 2.5 ng/mL) = tested on: KAI3 (IL-2 2.5 ng/mL)
# Method: as §1
# KHYG-1 (IL-2 2.5 ng/mL) = tested on: KHYG-1 (IL-2 2.5 ng/mL)
# Method: as §1
# NK-92 (IL-2 2.5 ng/mL) = tested on: NK-92 (IL-2 2.5 ng/mL)
# Method: as §1
# NKL (IL-2 2.5 ng/mL) = tested on: NKL (IL-2 2.5 ng/mL)
# Method: as §1
# SNK-6 (IL-2 2.5 ng/mL) = tested on: SNK-6 (IL-2 2.5 ng/mL)
# Method: as §1
# YT (IL-2 2.5 ng/mL) = tested on: YT (IL-2 2.5 ng/mL)
# Method: as §1
# NK-YS (IL-2 2.5 ng/mL) = tested on: NK-YS (IL-2 2.5 ng/mL)
# Method: as §1
# IMC-1 (IL-2 20 ng/mL) = tested on: IMC-1 (IL-2 20 ng/mL)
# Method: as §1
SMILES,relative IC50 (DERL-7 (IL-2 2.5 ng/mL)),relative IC50 (KAI3 (IL-2 2.5 ng/mL)),relative IC50 (KHYG-1 (IL-2 2.5 ng/mL)),relative IC50 (NK-92 (IL-2 2.5 ng/mL)),relative IC50 (NKL (IL-2 2.5 ng/mL)),relative IC50 (SNK-6 (IL-2 2.5 ng/mL)),relative IC50 (YT (IL-2 2.5 ng/mL)),relative IC50 (NK-YS (IL-2 2.5 ng/mL)),relative IC50 (IMC-1 (IL-2 20 ng/mL))
O=C(c1ccc(OCCN2CCCCC2)cc1)c1c(-c2ccc(O)cc2)sc2cc(O)ccc12 [Raloxifene],1740 nM,2770 nM,1740 nM,3290 nM,1680 nM,4500 nM,3070 nM,–,–
O=c1[nH]cc(F)c(=O)[nH]1 [Fluorouracil],2490 nM,–,2010 nM,526 nM,1230 nM,1190 nM,820 nM,1040 nM,–
Nc1nccc(-c2c(-c3ccc(F)cc3)ncn2C2CCCCC2)n1,–,39.1 nM,–,–,–,2170 nM,–,–,–
COc1cc(N2CCC(N3CCN(C)CC3)CC2)ccc1Nc1ncnc(Nc2ccccc2S(=O)(=O)C(C)C)n1 [ASP3026],3110 nM,–,1900 nM,–,–,–,1830 nM,–,3350 nM
CCn1cc(-c2ccnc3[nH]c(-c4cccc(CN(C)C)c4)cc23)c(-c2ccc(NC(=O)N(C)C)cc2)n1,17.6 nM,–,39.7 nM,–,–,4.21 nM,–,12.3 nM,158 nM
CC(C)(C)c1cc(NC(=O)Nc2ccc(-c3cn4c(n3)sc3cc(OCCN5CCOCC5)ccc34)cc2)no1 [Quizartinib],–,165 nM,233 nM,–,–,–,–,–,> 1000 nM
Nc1nc(N)c2nc(-c3cccc(O)c3)c(-c3cccc(O)c3)nc2n1 [TG100-115],–,–,–,–,–,132 nM,–,–,–
CS(=O)(=O)c1ccc(C(=O)Nc2ccc(Cl)c(-c3ccccn3)c2)c(Cl)c1 [Vismodegib],–,–,–,1400 nM,–,–,–,–,–
CS(=O)(=O)c1ccc(-c2cnc(N)c(C(=O)Nc3ccccc3)n2)cc1 [VE-821],1540 nM,332 nM,1550 nM,–,–,795 nM,–,–,2660 nM
CN(C)C1CCN(C(=O)c2ccc(NC(=O)Nc3ccc(-c4nc(N5CCOCC5)nc(N5CCOCC5)n4)cc3)cc2)CC1 [Gedatolisib],27.4 nM,85.9 nM,–,–,14.7 nM,75.6 nM,147 nM,32.5 nM,–
CC1(C)CNc2cc(NC(=O)c3cccnc3NCc3ccncc3)ccc21 [Motesanib],–,–,–,–,–,> 10000 nM,–,–,–
CC[C@H](Nc1ncnc2[nH]cnc12)c1nc2cccc(F)c2c(=O)n1-c1ccccc1 [Idelalisib],675 nM,–,–,31.7 nM,–,891 nM,–,–,–
FC(F)c1nc2ccccc2n1-c1nc(N2CCOCC2)nc(N2CCOCC2)n1 [ZSTK474],110 nM,290 nM,–,31.2 nM,436 nM,832 nM,262 nM,655 nM,–
Nc1ncn([C@@H]2O[C@H](CO)[C@@H](O)[C@H]2O)c(=O)n1 [Azacitidine],1440 nM,1150 nM,1520 nM,1470 nM,3860 nM,384 nM,–,1600 nM,3620 nM
C=CC(=O)N1CCC[C@@H](n2nc(-c3ccc(Oc4ccccc4)cc3)c3c(N)ncnc32)C1 [Ibrutinib],–,–,–,–,–,–,–,–,> 1000 nM
Nc1ncn([C@H]2C[C@H](O)[C@@H](CO)O2)c(=O)n1 [Decitabine],436 nM,26.9 nM,678 nM,392 nM,–,31.8 nM,–,474 nM,–
Cn1cc(-c2cnn3c(N)c(Br)c([C@@H]4CCCNC4)nc23)cn1 [MK-8776],539 nM,337 nM,311 nM,750 nM,372 nM,–,–,668 nM,–
CO[C@H]1C[C@@H]2CC[C@@H](C)[C@@](O)(O2)C(=O)C(=O)N2CCCC[C@H]2C(=O)O[C@H]([C@H](C)C[C@@H]2CC[C@@H](OP(C)(C)=O)[C@H](OC)C2)CC(=O)[C@H](C)/C=C(\C)[C@@H](O)[C@@H](OC)C(=O)[C@H](C)C[C@H](C)/C=C/C=C/C=C/1C [Ridaforolimus],1.04 nM,–,9.75 nM,–,0.18 nM,0.53 nM,–,0.4 nM,> 100 nM
C[C@]1(O)C[C@@H](c2nc(-c3ccc4ccc(-c5ccccc5)nc4c3)c3c(N)nccn32)C1 [Linsitinib],–,–,–,–,–,–,–,–,> 10000 nM
O=C(Nc1cccc(C(F)(F)F)c1)Nc1cc(S(=O)(=O)NC2CC2)ccc1-c1ccsc1 [AGI-6780],–,–,–,1390 nM,–,–,–,–,–
Cn1cnc2c(F)c(Nc3ccc(Br)cc3F)c(C(=O)NOCCO)cc21 [Binimetinib],–,–,–,–,19.6 nM,> 1000 nM,–,–,–
CCC(C)n1ncn(-c2ccc(N3CCN(c4ccc(OCC5COC(Cn6cncn6)(c6ccc(Cl)cc6Cl)O5)cc4)CC3)cc2)c1=O (stereo not given) [Itraconazole],1160 nM,1030 nM,1300 nM,572 nM,1770 nM,503 nM,–,1080 nM,–
